From ChEMBL document CHEMBL1144454, “Design, synthesis, and biological activities of pyrrolylethanoneamine derivatives, a novel class of monoamine oxidases inhibitors” (J Med Chem, 2005) come the findings set out here.

A short description of assay [1]: Selectivity for bovine Monoamine oxidase A as ratio of Ki(MAO-B)/Ki(MAO-A).
Assay [2] addresses Amine oxidase [flavin-containing] A (Bos taurus) (UniProt P21398). The experiment in a line: Inhibitory concentbovineion for bovine Monoamine oxidase A.
Assay [3] deals with Amine oxidase [flavin-containing] B (Bos taurus) (UniProt P56560).
Sequence of Amine oxidase [flavin-containing] B (Bos taurus) (P56560 whole entry, looked up): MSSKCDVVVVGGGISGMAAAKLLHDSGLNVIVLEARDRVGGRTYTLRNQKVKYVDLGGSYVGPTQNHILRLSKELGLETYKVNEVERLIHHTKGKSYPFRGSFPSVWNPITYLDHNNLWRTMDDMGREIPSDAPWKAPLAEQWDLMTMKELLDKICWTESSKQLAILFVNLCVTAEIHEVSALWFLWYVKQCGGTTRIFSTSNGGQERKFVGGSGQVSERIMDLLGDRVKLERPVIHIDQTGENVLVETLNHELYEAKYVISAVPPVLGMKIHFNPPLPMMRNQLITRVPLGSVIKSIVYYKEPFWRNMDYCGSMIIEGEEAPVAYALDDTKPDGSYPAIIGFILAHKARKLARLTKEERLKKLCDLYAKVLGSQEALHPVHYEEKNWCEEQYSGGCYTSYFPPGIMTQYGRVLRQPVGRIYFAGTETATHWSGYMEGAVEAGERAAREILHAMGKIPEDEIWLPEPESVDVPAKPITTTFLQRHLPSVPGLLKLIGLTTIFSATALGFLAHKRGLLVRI

As for `Cn1cccc1C(O)C(c1ccccc1)N1CCCCC1` (racemic; form 1) [listing 1 of 2 here], the A-selectivity in assay [1] was found to be 0.29.
Broadly, the Ki is a dissociation constant, usually derived from enzyme kinetics or from competition with a known ligand. For `Cn1cccc1C(=O)C(c1ccccc1)N1CCN(Cc2ccccc2)CC1` (stereo not drawn), the inhibitory constant (Ki) is 0.93 µM in assay [2] and 10 µM in assay [3]. Moreover, the A-selectivity in assay [1] amounted to 11.
As to `Cn1cccc1C(=O)C(c1ccccc1)N1CCSCC1` (stereo not drawn), the Ki was 0.1 µM in assay [2] and above 100 µM in assay [3]. Moreover, the A-selectivity in assay [1] is above 1000.
As for `Cn1cccc1C(O)C(c1ccccc1)N1CCCCC1` (stereo in doubt) [listing 1 of 2 here], the Ki in assay [2] was found to be 0.6 µM; in assay [3], 46 µM.
As for `Cn1cccc1C(O)C(c1ccccc1)N1CCCCC1` (single isomer, unassigned; (-)) [listing 1 of 2 here], the figures for the Ki in assay [2] and in assay [3] were 55 µM and 17.2 µM, respectively.
On to `Cn1cccc1C(O)C(c1ccccc1)N1CCCCC1` (single isomer, unassigned; form 2) [listing 1 of 2 here], for which the results for the Ki in assay [2] and in assay [3] were 7 µM and 1.24 µM, respectively.
Take `Cn1cccc1C(O)CN1CCCCC1` (stereo not drawn): the Ki stood at 0.51 µM in assay [2] and 23.9 µM in assay [3]. Also, the A-selectivity in assay [1] was 47.
In the case of `Cn1cccc1C(=O)[C@H](c1ccccc1)N1CCCCC1`, the figures for the Ki in assay [2] and in assay [3] were 0.1 µM and 410 µM, respectively. Further, the A-selectivity in assay [1] amounted to 4100.
Take `Cn1cccc1C(O)C(c1ccccc1)N1CCCCC1` (racemic; form 1) [listing 2 of 2 here]: the Ki in assay [2] is 31 µM; in assay [3] it was 9.22 µM.
`Cn1cccc1C(O)C(c1ccccc1)N1CCCCC1` (single isomer, unassigned; form 1) [listing 1 of 2 here]: the figures for the Ki in assay [2] and in assay [3] were 0.52 µM and above 10 µM, respectively.
On to `CCOc1ccc(NC(C(=O)c2cccn2C)c2ccccc2)cc1` (stereo not drawn), for which the Ki in assay [2] is 0.83 µM; in assay [3], above 100 µM. The A-selectivity in assay [1] is above 121.
Consider `Cn1cccc1C(O)C(c1ccccc1)N1CCCCC1` (single isomer, unassigned; form 2) [listing 2 of 2 here], for which the A-selectivity in assay [1] came to 0.18.
Regarding `Cn1cccc1C(O)C(c1ccccc1)N1CCCCC1` (single isomer, unassigned; form 1) [listing 2 of 2 here], the A-selectivity in assay [1] was above 19.
As for `CN(C)C(C(=O)c1cccn1C)c1ccccc1` (stereo not drawn), the Ki in assay [2] was determined as 1.75 µM; in assay [3], 875 µM. Further, in assay [1], the A-selectivity is 500.
Regarding `Cn1cccc1C(O)C(c1ccccc1)N1CCCCC1` (racemic; form 2) [listing 1 of 2 here], the inhibitory constant (Ki) was found to be 1 µM in assay [2] and 140 µM in assay [3].
For `Cn1cccc1C(=O)[C@@H](c1ccccc1)N1CCCC1` the same measures were 0.0035 µM and 700 µM.
The like results for `CC(C(=O)c1cccn1C)N1CCCCC1` (stereo not drawn) were, in that order, 0.038 µM and 36 µM.
With `Cn1cccc1C(=O)C(c1ccccc1)N1CCCC1` (racemic), the results for the inhibition constant (Ki) in assay [2] and in assay [3] were 0.0075 µM and 600 µM, respectively.
With `Cn1cccc1C(O)C(c1ccccc1)N1CCCCC1` (racemic; form 2) [listing 2 of 2 here], the A-selectivity in assay [1] turned out to be 140.
Same read-out and setting: the same measure for `Cn1cccc1C(O)C(c1ccccc1)N1CCCCC1` (single isomer, unassigned; (-)) [listing 2 of 2 here]: 0.31.
Consider `Cn1cccc1C(=O)C(N)c1ccccc1` (stereo not drawn), for which the Ki in assay [2] is 0.095 µM; in assay [3], 42 µM. Also, the A-selectivity in assay [1] is 442.
As for `CN1CCN(C(C(=O)c2cccn2C)c2ccccc2)CC1` (stereo not drawn), the Ki in assay [2] was 0.347 µM; in assay [3] it was above 100 µM. Further, in assay [1], the A-selectivity is above 288.
Regarding `Cn1cccc1C(O)C(c1ccccc1)N1CCCCC1` (stereo in doubt) [listing 2 of 2 here], in assay [1], the A-selectivity came to 77.
Take `Cn1cccc1C(=O)[C@@H](c1ccccc1)N1CCSCC1`: the results for the Ki in assay [2] and in assay [3] were 0.076 µM and 400 µM, respectively. Also, in assay [1], the A-selectivity is 5260.
On to `Cn1cccc1C(=O)C(c1ccccc1)N1CCOCC1` (stereo not drawn), for which the Ki in assay [2] was 0.35 µM; in assay [3], above 100 µM. For the same molecule, the A-selectivity in assay [1] was above 286.
Turning to `Cn1cccc1C(=O)CN1CCCCC1`, the Ki turned out to be 0.007 µM in assay [2] and 15 µM in assay [3].
In assay [2], `Cn1cccc1C(=O)[C@@H](c1ccccc1)N1CCCCC1` yielded a Ki of 0.01 µM.
As to `Cn1cccc1C(=O)[C@H](c1ccccc1)N1CCSCC1`, the inhibition constant Ki is 0.082 µM in assay [2] and 100 µM in assay [3]. Moreover, in assay [1], the A-selectivity was found to be 1220.
As to `Cn1cccc1C(=O)C(c1ccccc1)N1CCCCC1` (racemic), the Ki was 0.096 µM in assay [2] and 500 µM in assay [3]. Also, the A-selectivity in assay [1] was 5210.
With `Cn1cccc1C(=O)[C@H](c1ccccc1)N1CCCC1`, the Ki was determined as 0.0095 µM in assay [2] and 500 µM in assay [3].
As for `Cn1cccc1C(=O)C(c1ccccc1)N1C(=O)c2ccccc2C1=O` (stereo not drawn), the Ki in assay [2] is 0.81 µM; in assay [3], above 100 µM. In addition, the A-selectivity in assay [1] was above 123.
